Reference: patent US11401271B2, “Fused heterocyclic compound, pyrazole-ring-containing fused heterocyclic compound, agricultural composition containing thereof, and method of using the composition” (SOUTH CHINA AGRICULTURAL UNIVERSITY, priority 2017, dated 2022)
Like-named read-outs stand apart in the source and are kept apart here.

What was measured:
Type in all cases: in vivo
[1] = system: Solenopsis invicta; experiment: whole plant or invertebrate; settings: water test tube poison-feeding; for mortality at 100 ppm: Solenopsis invicta
In short: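 Fire ants fed compound by water test-tube poison-feeding at 100 ppm in aqueous 0.05% Tween-80/5% honey (from 10 g/L DMSO stock), kept at 25 °C. Live and dead ants counted at 24 and 72 h; mortality (%) calculated relative to live ants in the untreated control.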

[2] = system: Plutella xylostella; experiment: whole plant or invertebrate; settings: for mortality at 500 ppm: Plutella xylostella, read-out: Plutella xylostella Mortality (%) 500 ppm
In short: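 Cabbage leaf discs dipped 5 s in compound at 500 ppm (0.05% Tween-80 aqueous), air-dried, fed to about 35 2nd-instar larvae at 28° C., triplicate. Dead larvae counted after 24 h; mortality (%) corrected against Tween-80 control.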

[3] = system: Aphis craccivora; experiment: whole plant or invertebrate; settings: for mortality at 500 ppm: Aphis craccivora, read-out: Aphis craccivora Mortality (%) 500 ppm; for Aphis craccivora Mortality (%): immersion 5 seconds, counted after 24 hours
In short: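 Wingless adults feeding on bean sprouts were dipped with the sprouts for 5 s in 500 ppm compound in aqueous 0.05% Tween-80, air-dried, then held at 23° C. Dead aphids counted after 24 h, triplicate, with 0.05% Tween-80 as control. Mortality (%) = (control live − treated live)/control live × 100.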

[4] = system: Bombyx mori L.; experiment: Toxicity test on 2nd-instar larvae of Bombyx mori L., leaf immersion feeding method; settings: 1000 ppm, 24 hours
Experimental: (1) Toxicity Test on 2nd-Instar Larvae of Bombyx mori L.
Bombyx mori L. is an important economic insect sensitive to pesticides in an agricultural ecosystem, and is also one of the non-target organisms of environmental ecology listed in pesticide registration of China. The 2nd-instar larvae of Bombyx mori L. were used as test objects and tested by using a leaf immersion feeding method.
Operation process: Samples were weighed accurately, and respectively added with 200 μL of dimethyl sulfoxide to prepare 10 g/L mother liquor which was diluted into a concentration of 1000 ppm with an aqueous solution containing 0.05% of Tween-80 during the test. Young cotyledons of mulberries were collected, washed and air-dried, immersed in a liquid medicine, taken out after 5 seconds, naturally air-dryed, and then transferred into a clean vessel. About 35 2nd -instar larvae of Bombyx mori L. were put into the vessel and fed at a constant temperature of 25° C. Each concentration was repeated 3 times, and an aqueous solution containing 0.05% of Tween-80 was used as a control group. After being treated for 24 hours, a number of dead Bombyx mori L. was counted, and a mortality (%) was calculated according to a formula that mortality (%)=(number of live larvae in the control group −number of treated live larvae)/number of live larvae in the control group * 100%.

[5] = system: Spodoptera exigua; experiment: whole plant or invertebrate; settings: for mortality at 500 ppm: Spodoptera exigua, read-out: Spodoptera exigua Mortality (%) 500 ppm
In short: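 Cabbage leaf discs dipped 5 s in 500 ppm compound (0.05% Tween-80 aqueous), air-dried, fed to about 35 2nd-instar larvae at 28° C, three replicates. Deaths counted at 24 h; mortality corrected against Tween-80 control.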

[6] = system: Apis cernan; experiment: Toxicity test on adult worker bees of Apis cernan, small beaker method; settings: 500 ppm, 48 hours
Experimental: (2) Toxicity Test on Adult Worker Bees of Apis cernan.
Adult worker bees of Apis cernan having the same size were selected for test. The worker bees were collected from beekeeping boxes in the daystart of the test day and tested by using a small beaker method.
Operation process: A small amount of absorbent cotton was put into a 5 mL small beaker, 5 mL of a test liquid medicine (a concentration of 500 ppm) was dropped into the absorbent cotton, and stirred gently to make the absorbent cotton completely wet but not leached obviously, then the small beaker was put into a 500 mL large beaker, then 15 worker bees were put into the large beaker, and finally the large beaker was sealed with gauze. After treatment, the large beaker was placed in a dark room of an artificial climate box. After taking the medicine for 48 hours, a number of live and dead worker bees were investigated.

[7] = 24 h, read-out: Solenopsis invicta Mortality (%) 100 ppm 24 h, 100 ppm, 24 h
[8] = 72 h, read-out: Solenopsis invicta Mortality (%) 100 ppm 72 h, 100 ppm, 72 h
[9] = 500 ppm, 2nd-instar larvae, leaf immersion feeding

| SMILES | mortality at 100 ppm [1, 7] | mortality at 100 ppm [1, 8] | mortality at 500 ppm [2] | mortality at 500 ppm ([3]; 24 h) | Toxicity determination Bombyx mori L. Mortality (%) [4] | mortality at 500 ppm ([5]; 24 h) | Toxicity determination Apis cernan Mortality (%) [6] | mortality at 100 ppm ([1]; 24 h, 100 ppm, 24 h, read-out: Solenopsis invicta Mortality (%) 100 ppm 24 h) | mortality at 100 ppm ([1]; 72 h, 100 ppm, 72 h, read-out: Solenopsis invicta Mortality (%) 100 ppm 72 h) | mortality at 500 ppm [2, 9] | mortality at 500 ppm ([3]; 500 ppm, wingless adults, impregnation method, 24 hours) | mortality at 500 ppm ([5]; 500 ppm, 2nd-instar larvae, leaf immersion feeding, 24 hours) | Solenopsis invicta Mortality (%) 24 h ([1]; 100 ppm, 24 h) | Solenopsis invicta Mortality (%) 72 h ([1]; 100 ppm, 72 h) | Plutella xylostella Mortality (%) [2, 9] | Aphis craccivora Mortality (%) ([3]; 500 ppm, wingless adults) | Spodoptera exigua Mortality (%) [5, 9] |
| --- | --- | --- | --- | --- | --- | --- | --- | --- | --- | --- | --- | --- | --- | --- | --- | --- | --- |
| O=[N+]([O-])c1cc2n(n1)-c1cnccc1C(F)(CC(F)(F)F)N2 (stereo not shown) [Compound A43] | 20% | 100% | 100% | 100% | 3% | 100% | 8% |  |  |  |  |  |  |  |  |  |  |
| C[S+]([O-])c1c(C#N)nn2c1NC(CO)(CC#N)c1cc(C(F)(F)F)cc(Cl)c1-2 (stereo not shown) [Compound C26] | 20% | 80% | 89% | 100% | 4% | 90% | 4% |  |  |  |  |  |  |  |  |  |  |
| CNC(=O)C1(CC(=O)OC)Nc2c([S+](C)[O-])c(C(C)=O)nn2-c2c(Cl)cc(C(F)(F)F)cc21 (stereo not shown) [Compound C46] | 21% | 80% | 89% | 90% | 5% | 91% | 3% |  |  |  |  |  |  |  |  |  |  |
| CCOC(=O)c1c(SC)nn2c1NC(C)(C)c1nc(F)ncc1-2 [Compound A44] | 26% | 93% | 100% | 100% | 8% | 90% | 8% |  |  |  |  |  |  |  |  |  |  |
| COC(=O)CC1(C(=O)OC)Nc2c([S+]([O-])C(F)(F)F)c(C#N)nn2-c2c(Cl)cc(C(F)(F)F)cc21 (stereo not shown) [Compound C37] | 20% | 100% | 100% | 100% | 6% | 100% | 8% |  |  |  |  |  |  |  |  |  |  |
| CC1(C)Nc2c([N+](=O)[O-])c(C#N)nn2-c2ccccc21 [Compound A21] | 24% | 100% | 100% | 100% | 0% | 100% | 6% |  |  |  |  |  |  |  |  |  |  |
| C=CC1(CCl)Nc2c(-c3cc(C)oc3C)c(C#N)nn2-c2c(Cl)cc(C(F)(F)F)cc21 (stereo not shown) [Compound C10] | 27% | 100% | 100% | 100% | 10% | 85% | 9% |  |  |  |  |  |  |  |  |  |  |
| CNC(=O)C1(CC#N)Nc2c([S+](C)[O-])c(C(C)=O)nn2-c2c(Cl)cc(C(F)(F)F)cc21 (stereo not shown) [Compound C45] | 25% | 71% | 93% | 86% | 6% | 97% | 3% |  |  |  |  |  |  |  |  |  |  |
| COC(=O)Nc1ccc2c(c1)-n1cc(C#N)c(C#N)c1NC2(C#N)C#N [Compound B11] |  |  |  |  | 7% |  | 3% | 33% | 95% | 100% | 100% | 100% |  |  |  |  |  |
| N#Cc1cn2c(c1C#N)NC(C#N)(C#N)c1ccc(N)cc1-2 [Compound B7] | 38% | 100% | 100% | 100% | 6% | 100% | 6% |  |  |  |  |  |  |  |  |  |  |
| CC(=O)C1(CC(=O)C(F)(F)F)Nc2c([S+]([O-])C(F)(F)F)c(C#N)nn2-c2cc(C(F)(F)F)cc(Cl)c21 (stereo not shown) [c-47] |  |  |  |  |  |  |  |  |  |  |  |  | 35% | 99% | 90% | 100% | 89% |
| COC(=O)C1(CC(=O)OCC(F)F)Nc2c([S+]([O-])C(F)(F)F)c(C#N)nn2-c2c(C(F)(F)F)ccc(Cl)c21 (stereo not shown) [e-4] |  |  |  |  |  |  |  |  |  |  |  |  | 32% | 100% | 100% | 100% | 100% |
| CC=CC1Nc2c([S+]([O-])C(F)(F)F)c(C#N)nn2-c2cncc(Cl)c21 (stereo not shown) [b-86] |  |  |  |  |  |  |  |  |  |  |  |  | 20% | 97% | 96% | 100% | 89% |
| CC(=O)c1nn2c(c1[S+](C)[O-])NC(CBr)(CC#N)c1cc(C(F)(F)F)cc(Cl)c1-2 (stereo not shown) [Compound C41] | 19% | 90% | 89% | 100% |  | 94% |  |  |  |  |  |  |  |  |  |  |  |
| CC(=O)C1(CC(=O)C(F)(F)F)Nc2c([S+]([O-])C(F)(F)F)c(C#N)nn2-c2c(Cl)cc(C(F)(F)F)cc21 (stereo not drawn) [d-49] |  |  |  |  |  |  |  |  |  |  |  |  | 29% | 100% | 100% | 100% | 100% |
| COC(=O)CC1(C(=O)OC)Nc2c(C(F)(F)F)c(C#N)nn2-c2cc(C(F)(F)F)cc(Cl)c21 (stereo not shown) [c-2] |  |  |  |  |  |  |  |  |  |  |  |  | 20% | 97% | 95% | 100% | 90% |
